# Like-named read-outs stand apart in the source and are kept apart here.
# What was measured:
# [1] = target: T1, cardiac phosphodiesterase III (PDEIII), dog (Canis lupus familiaris, UniProt A0A8I3NYE0); assay: Inhibition of cardiac phosphodiesterase III, dog heart enzyme preparation; type: biochemical; conditions: dog heart; read-out: IC50-value, inhibition of cardiac phosphodiesterase III, Dog
# T1 construct: enzyme preparation isolated from dog and guinea-pig heart; from tissue; host or cells: dog heart
# T1 sequence (A0A8I3NYE0 1-1135): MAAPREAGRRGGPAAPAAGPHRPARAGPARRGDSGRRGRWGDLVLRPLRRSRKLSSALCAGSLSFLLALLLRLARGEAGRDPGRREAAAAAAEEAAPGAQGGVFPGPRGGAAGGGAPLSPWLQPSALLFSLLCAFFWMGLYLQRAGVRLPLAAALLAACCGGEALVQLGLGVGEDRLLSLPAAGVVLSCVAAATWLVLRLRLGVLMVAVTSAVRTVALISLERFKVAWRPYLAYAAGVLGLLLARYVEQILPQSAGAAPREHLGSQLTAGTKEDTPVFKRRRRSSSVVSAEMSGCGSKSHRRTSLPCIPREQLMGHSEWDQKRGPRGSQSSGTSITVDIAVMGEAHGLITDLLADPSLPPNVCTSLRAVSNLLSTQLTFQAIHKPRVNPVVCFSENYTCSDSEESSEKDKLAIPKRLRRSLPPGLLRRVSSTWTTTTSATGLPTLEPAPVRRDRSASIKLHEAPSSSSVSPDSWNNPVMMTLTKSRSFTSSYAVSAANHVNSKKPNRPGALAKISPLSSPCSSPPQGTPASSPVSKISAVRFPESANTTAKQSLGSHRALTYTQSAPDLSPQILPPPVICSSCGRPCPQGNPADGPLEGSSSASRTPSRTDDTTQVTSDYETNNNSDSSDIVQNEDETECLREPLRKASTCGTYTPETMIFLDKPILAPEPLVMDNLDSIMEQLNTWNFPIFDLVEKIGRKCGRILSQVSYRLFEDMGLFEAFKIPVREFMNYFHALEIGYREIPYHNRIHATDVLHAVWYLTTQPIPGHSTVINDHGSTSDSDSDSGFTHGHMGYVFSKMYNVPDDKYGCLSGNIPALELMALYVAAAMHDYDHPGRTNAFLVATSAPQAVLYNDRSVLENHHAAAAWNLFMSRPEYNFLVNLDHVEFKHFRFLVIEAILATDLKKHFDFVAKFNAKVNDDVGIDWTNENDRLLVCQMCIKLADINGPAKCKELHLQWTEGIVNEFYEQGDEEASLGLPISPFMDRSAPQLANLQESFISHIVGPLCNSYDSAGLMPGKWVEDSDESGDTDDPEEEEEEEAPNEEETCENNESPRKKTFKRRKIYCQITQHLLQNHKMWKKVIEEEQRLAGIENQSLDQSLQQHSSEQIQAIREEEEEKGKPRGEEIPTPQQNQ
# [2] = system: guinea-pig papillary muscle; assay: Cardiotonic effect in isolated, electrically driven, right ventricular papillary muscle, without and with carbachol; conditions: for EC50: Cavia porcellus, read-out: EC50 cardiotonic effect (A)
# Procedure: The cardiotonic action of the compound was studied in isolated, electrically driven, right ventricular papillary muscle of guinea-pig.
# A = experiments carried out without carbachol
# B = experiments carried out in the presence of 10 μM carbachol
# troponin = assay: Retention time in troponin high-performance liquid affinity chromatography (HPLAC) column, calcium dependent binding to troponin; conditions: for Ratio Ca^2+ /EDTA (retention times in troponin-HPLAC column): Ca^2+ solution / EDTA solution; for Retention time in troponin-HPLAC column, Ca^2+ solution: mobile phase with 30 mM calcium; for Retention time in troponin-HPLAC column, Ca^2+ solution / Retention time in troponin-HPLAC column, EDTA solution: flow rate 1 ml/min; for Retention time in troponin-HPLAC column, EDTA solution: mobile phase without calcium (EDTA)
# Procedure: The contraction in cardiac muscle and in vascular smooth muscle is triggered by the binding of calcium to troponin and to calmodulin, respectively. […] Commercially available troponin was coupled to the matrix of SelectiSpher-10™ Activated Tresyl silica HPLAC column (size 10 cm×5 mm). The compounds were run through the column with the flow rate 1 ml/min and detected by UV-spectrophotometrically.
# [3] = system: guinea-pig papillary muscle; assay: Ability to induce tonic contraction in papillary muscle in the absence of extracellular calcium; conditions: drug concentration 100 μM; no extracellular calcium
# Procedure: The cardiotonic action of the compound was studied in isolated, electrically driven, right ventricular papillary muscle of guinea-pig. In order to compare the cardiotonic action based on PDEIII inhibition to that based on the other mechanisms the experiments were carried out in normal Tyrode's bathing solution (Otani et al., Japan. J. Pharmacol. 45, 425, 1987) and also in the solution with carbachol to eliminate the cardiotonic action due to the PDEIII inhibition (Alousi & Johnson, Circulation, 73 (suppl. III), 10-23, 1986).
# C = ability to induce tonic contraction in the absence of extracellular
# calcium; drug concentration 100 μM
# [4] = target: T2, cardiac phosphodiesterase III (PDEIII), guinea-pig (Cavia porcellus, UniProt H0VIU9); assay: Inhibition of cardiac phosphodiesterase III, guinea-pig heart enzyme preparation; type: biochemical
# T2 construct: enzyme preparation isolated from dog and guinea-pig heart; from tissue; host or cells: guinea-pig heart
# T2 sequence (H0VIU9 1-1132): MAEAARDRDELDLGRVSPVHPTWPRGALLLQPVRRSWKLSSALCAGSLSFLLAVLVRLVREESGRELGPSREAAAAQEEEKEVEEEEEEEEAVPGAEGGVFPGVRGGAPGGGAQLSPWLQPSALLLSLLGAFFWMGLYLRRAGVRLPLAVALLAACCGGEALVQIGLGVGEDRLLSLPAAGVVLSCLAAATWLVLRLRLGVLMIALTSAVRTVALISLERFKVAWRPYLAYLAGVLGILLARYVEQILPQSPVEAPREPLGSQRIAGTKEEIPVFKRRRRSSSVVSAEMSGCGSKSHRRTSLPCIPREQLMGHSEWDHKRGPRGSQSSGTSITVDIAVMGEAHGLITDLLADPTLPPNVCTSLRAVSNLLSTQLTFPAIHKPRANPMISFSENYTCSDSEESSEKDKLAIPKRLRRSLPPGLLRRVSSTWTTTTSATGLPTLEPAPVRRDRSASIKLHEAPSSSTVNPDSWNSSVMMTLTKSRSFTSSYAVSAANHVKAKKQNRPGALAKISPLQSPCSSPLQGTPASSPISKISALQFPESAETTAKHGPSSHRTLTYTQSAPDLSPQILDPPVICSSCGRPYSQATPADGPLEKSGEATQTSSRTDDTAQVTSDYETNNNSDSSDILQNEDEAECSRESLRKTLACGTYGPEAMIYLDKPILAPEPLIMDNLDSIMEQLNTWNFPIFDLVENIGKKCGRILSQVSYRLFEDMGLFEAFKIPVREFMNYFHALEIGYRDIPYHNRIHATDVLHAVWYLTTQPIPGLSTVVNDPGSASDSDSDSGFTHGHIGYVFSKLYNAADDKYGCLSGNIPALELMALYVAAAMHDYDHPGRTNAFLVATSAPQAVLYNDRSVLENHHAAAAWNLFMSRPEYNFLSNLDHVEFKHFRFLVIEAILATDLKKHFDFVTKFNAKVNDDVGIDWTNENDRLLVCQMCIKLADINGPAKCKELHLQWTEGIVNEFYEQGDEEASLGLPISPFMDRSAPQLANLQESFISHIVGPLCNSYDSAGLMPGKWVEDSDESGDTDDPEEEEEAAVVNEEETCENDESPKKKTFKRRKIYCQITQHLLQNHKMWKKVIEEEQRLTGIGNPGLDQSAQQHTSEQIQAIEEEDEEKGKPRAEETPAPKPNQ
# Excerpt: The PDEIII inhibition was studied by using enzyme preparation isolated from dog and guinea-pig heart according to Alajoutsijarvi and Nissinen (Anal. Biochem. 165, 128-132, 1987).
Structure (SMILES),IC50 [1] [nM],EC50 [2] [nM],Ratio B/A of EC50 ([2]; with 10 μM carbachol / without carbachol),Ratio Ca^2+ /EDTA (retention times in troponin-HPLAC column) (troponin),"Retention time in troponin-HPLAC column, Ca^2+ solution (troponin) [min]","Retention time in troponin-HPLAC column, EDTA solution (troponin) [min]",C: ability to induce tonic contraction in the absence of extracellular calcium [3],EC50 ([2]; without carbachol) [nM],IC50 [4] [nM]
"N#CC(C#N)=NNc1ccc(C2=NNC(=O)CC2)cc1 [Example 1, 6-[4-(1,1-dicyanomethylidenehydrazino)phenyl]-4,5-dihydropyridazin-3(2H)one]",270,1800,2.0,1.59,3.5,2.2,yes,,
"CC1CC(=O)NN=C1c1ccc(NN=C(C#N)C#N)cc1 (stereo not drawn) [Example 6, 6-[4-(1,1-dicyanomethylidenehydrazino)phenyl]-4,5-dihydro-5-methylpyridazin-3(2H)one]",62,170,,,,,,,
"CC1CC(=O)NN=C1/C=C/c1ccc(NN=C(C#N)C#N)cc1 (stereo not drawn) [Example 33, (E)-6-[2-(4-(1,1-dicyanomethylidenehydrazino)phenyl)ethenyl]-4,5-dihydro-5-methylpyridazin-3(2H)one]",,,,1.69,6.6,3.9,yes,300,6
"CC1SC(=O)NN=C1c1ccc(NN=C(C#N)C#N)cc1 (stereo not drawn) [Example 41, 5-[4-(1,1-dicyanomethylidenehydrazino)phenyl]-5,6-dihydro-6-methyl-1,3,4-thiadiazin-2(3H)one]",,,,2.19,10.5,4.8,yes,120,24
"CC1NC(=O)NN=C1c1ccc(NN=C(C#N)C#N)cc1 (stereo not drawn) [Example 43, 6-[4-(1,1-dicyanomethylidenehydrazino)phenyl]-4,5-dihydro-5-methyl-1,2,4-triazin-3(2H)one]",,,,2.00,2.4,1.2,,,17
"N#CC(C#N)=NNc1ccc(C2=NNC(=O)SC2)cc1 [Example 44, 5-[4-(1,1-dicyanomethylidenehydrazino)phenyl]-5,6-dihydro-1,3,4-thiadiazin-2(3H)one]",,,,,,,yes,1100,51
"N#CC(C#N)=NNc1ccc(C2=NNC(=O)NC2)cc1 [Example 45, 6-[4-(1,1-dicyanomethylidenehydrazino)phenyl]-4,5-dihydro-1,2,4-triazin-3(2H)one]",,,,2.33,2.1,0.9,,,
"N#CC(C#N)=NNc1ccc(C=CC2=NNC(=O)SC2)cc1 [Example 49, 5-[2-(4-(1,1-dicyanomethylidenehydrazino)phenyl)ethenyl]-5,6-dihydro-1,3,4-thiadiazin-2(3H)one]",,1100,,2.30,18.4,8.0,yes,,24
"O=C1CCC(c2ccc(Nc3ccncc3)cc2)=NN1 [MCI-154, reference compound]",420,,,0.52,6.5,12.4,,,
"CC1(C)C(=O)Nc2cc3[nH]c(-c4ccncc4)nc3cc21 [adibendan, reference compound]",1000,,,0.99,14.8,15.0,,,
"COc1ccc(-c2nc3ccc(C4=NNC(=O)CC4C)cc3[nH]2)cc1 (stereo not drawn) [pimobendan, reference compound]",1750,,,0.88,70.4,79.6,no,3300,

# From patent US5019575A, “Novel pyridazinone compounds, compositions thereof and method of use” (Orion-yhtyma Oy, priority 1989, dated 1991)
